# Test results from patent US20130211371A1, “FORMULATIONS AND METHODS OF TREATMENT OF SKIN CONDITIONS” (Hy Biopharma, Inc., priority 2010, published 2013).
# Marks after values point to notes of the source that are not given here.
# Assays:
# [1] = Phase II study, adverse events; format: in vivo, human
# Method: (§1) Skin reactions were evaluated each week immediately after irradiation and again at 48 and 72 hours later. The sites of irradiation were examined twice per week thereafter and all changes; e.g., erythema, edema, desquamation, pigmentation, etc, were recorded.
# MF lesions = test: Phase II study, topical hypericin and visible light, MF arm; format: in vivo, human; details: 6 weeks
# Method: (§2) This study is designed to evaluate the safety and efficacy of topical hypericin in concentrations of 0.1% and 0.25% under occlusion for 24 hours followed by administration of visible light in doses ranging from 8 to 20 J/cm^2 twice weekly for 6 weeks for the treatment of psoriasis or MF. One of the four centers involved in the study administered topical hypericin in concentrations of 0.05 and 0.1%. The concentration of hypericin and the dose of light were based upon the Phase I study described above with normal volunteers.
# A standardized topical amount of hypericin in either ointment or liquid formula was applied to defined plaques on the skin of volunteer subjects. […]
# as §1
# Lesion responses in this study were scored in accordance with the following scales at each patient evaluation:lesional CR=complete regression of the treated lesion; PR=>50% decrease in lesional area during treatment; Stable=<50% decrease in size or <25% increase in size during therapy; Progression=>25% increase in size during therapy. […] If so, the patient was scored as a responder for that lesion. […]
# [2] = Phase I clinical trial, cutaneous phototoxicity of topical hypericin with visible light; format: in vivo, human
# psoriasis lesions = test: Phase II study, topical hypericin and visible light, psoriasis arm; format: in vivo, human; details: All Ointment + Liquid, 6 weeks
# Method: as §2
# A standardized topical amount of hypericin in either ointment or liquid formula was applied to defined plaques on the skin of volunteer subjects. The amount of hypericin in each topical application was as follows: 0.05%=0.005 mg/cm^2; 0.1%=0.01 mg/ cm^2, and 0.25%=0.025 mg/ cm^2.
# Each hypericin treatment or placebo was applied twice weekly for a period of 24 hours prior to irradiation. Each application site was covered by non-absorbing Webril cotton of equal area and occluded with occlusive tape (Blenderm, 3M); excess drug was removed prior to irradiation (24 hours post drug application).
# Irradiation was undertaken using visible fluorescent bulbs (590-650 nm) (GE cool white fluorescent bulbs, 20-watt fluorescent tubes housed in a reflecting bank) for a period not to exceed 15 minutes (total number of joules approximately 5/cm^2). The light dose was administered twice weekly, separated by at least one day.
# The light dose was increased once weekly by 1 joule/cm^2 until symptoms or signs of phototoxicity appeared. At that point, the dose could either be maintained or reduced by 1 joule/cm^2 if phototoxicity was pronounced (skin erythema of greater than 1+[minimal visible erythema).
# as §1
# Lesion responses in this study were scored in accordance with the following scales at each patient evaluation:lesional CR=complete regression of the treated lesion; PR=>50% decrease in lesional area during treatment; Stable=<50% decrease in size or <25% increase in size during therapy; Progression=>25% increase in size during therapy. The success/failure criterion for each lesion on each patient was whether there was a 50% or better improvement in the lesion area at the end of the 6-week treatment cycle. If so, the patient was scored as a responder for that lesion. Table 1 indicates the rating criteria for patient response.
# All patients receiving treatment for MF were treated with the ointment preparation. For patients with psoriasis, 5 patients were treated with 0.1% and 0.25% aqueous solutions of hypericin in dimethyl sulfoxide (DMSO) and 6 patients were treated with the USP
# Hydrophilic Ointment preparations. The liquid dosage form consisted of dissolving either 0.2 mL or 0.5 mL hypericin stock solution (polyethylene glycol solution) in 44.8 or 44.5 mL of 50% DMSO/water and mixing with a magnetic stirrer.
# The response or lack of response, of each lesion treated with either placebo ointment or with a hypericin-containing ointment was analyzed as a binomial (i.e., yes/no) distribution.
# This was an appropriate analysis for response which was quantal in nature. For the null hypothesis (no treatment response) it was assumed that spontaneous resolution of the lesion by the protocol specified 6-week time point would not occur. That is, the true probability of spontaneous lesion regression (defined as <50% of its baseline size for CTCL and to <50% of its combined baseline score for psoriasis lesions) was taken as zero (0%). For the MF analysis, a repeated measures logistic regression was employed to obtain p-values. For analysis of the psoriasis data, a likelihood ratio chi-square test was employed.
# [3] = cited from earlier work
smiles,measurement,setting,value
"Cc1cc(O)c2c(=O)c3c(O)cc(O)c4c5c(O)cc(O)c6c(=O)c7c(O)cc(C)c8c1c2c(c34)c(c78)c65 [Hypericin, 4,5,7,4′,5′,7′ -dimethyl-meso naphthodiantbrone]",Deaths or serious adverse events / overall safety,[1]; MF and psoriasis patients,No deaths or serious adverse events
same,Reported adverse events,[1]; at the application site after visible light,"mild to moderate burning, itching, erythema, and pruritus at the application site"
same,"Percent Responders, Hypericin 0.1% Dose (MF)",MF lesions; ointment 0.1%,41.7%
same,"Percent Responders, Hypericin 0.25% Dose (MF)",MF lesions; ointment 0.25%,55.6%
same,Cutaneous reactions at 0.02%,"[2]; 0.02% hypericin, any dose of light",no cutaneous reactions
same,Cutaneous photosensitivity at 0.1% and 0.5%,"[2]; topical under occlusion, visible light 24 hours after application",causes cutaneous photosensitivity
same,"Percent Responders, Response to 0.05% Dose (psoriasis)",psoriasis lesions; 0.05%,9.1%
same,"Responders/Total, Response to 0.05% Dose (psoriasis)",psoriasis lesions; 0.05%,1/11
same,"Percent Responders, Hypericin 0.1% Dose (psoriasis)",psoriasis lesions; 0.1%,"36.4^a,b %"
same,"Responders/Total, Hypericin 0.1% Dose (psoriasis)",psoriasis lesions; 0.1%,4/11
same,"Percent Responders, Hypericin 0.1% Dose (psoriasis)","psoriasis lesions; 0.1%, listed as hypericin",36.4%
same,"Percent Responders, Hypericin 0.25% Dose (psoriasis)",psoriasis lesions; 0.25%,45.4%^b
same,"Responders/Total, Hypericin 0.25% Dose (psoriasis)",psoriasis lesions; 0.25%,5/11
same,"Percent Responders, Hypericin 0.25% Dose (psoriasis)","psoriasis lesions; 0.25%, listed as hypericin",45.4%
same,"Percent Responders, All Hypericin Responders (psoriasis)",psoriasis lesions; any dose,54.6%^b
same,"Responders/Total, All Hypericin Responders (psoriasis)",psoriasis lesions; any dose,6/11
same,half life,[3]; in vivo,20 to 24 h
same,bioavailable following oral administration,[3]; oral,about 20%
